Laboratory results reported in the supplement of paper PMC10307832.

How the values were obtained:
Test in all cases: relative viability (nuclei count vs DMSO), 5 days (fraction); higher = more cells survive
EHT 1864 + Pictilisib = compound: C1COCCN1CC2=CC(=O)C(=CO2)OCCCCCSC3=C4C=CC(=CC4=NC=C3)C(F)(F)F [EHT 1864] + CS(=O)(=O)N1CCN(Cc2cc3nc(-c4cccc5[nH]ncc45)nc(N4CCOCC4)c3s2)CC1 [Pictilisib] (partner 1 µM)
Outline: (§1)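 Lung cancer cell lines, seeded in 1536-well plates, were treated the following day by pin tool with a single drug or with five library-drug doses (not always all listed) in √10 steps on top of a fixed anchor-drug dose. Cells were fixed and nuclei stained in one step after 5 days, and nuclei were counted. Relative viability is the nuclei count for treated wells divided by that for vehicle wells, reported as medians of duplicate plates.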

EHT 1864 + Olaparib = compound: C1COCCN1CC2=CC(=O)C(=CO2)OCCCCCSC3=C4C=CC(=CC4=NC=C3)C(F)(F)F [EHT 1864] + O=C(c1cc(Cc2n[nH]c(=O)c3ccccc23)ccc1F)N1CCN(C(=O)C2CC2)CC1 [Olaparib] (partner 8 µM)
Outline: as §1

EHT 1864 + Bortezomib = compound: C1COCCN1CC2=CC(=O)C(=CO2)OCCCCCSC3=C4C=CC(=CC4=NC=C3)C(F)(F)F [EHT 1864] + CC(C)C[C@H](NC(=O)[C@H](Cc1ccccc1)NC(=O)c1cnccn1)B(O)O [Bortezomib] (partner 0.002 µM)
Outline: as §1

EHT 1864 + Trametinib = compound: C1COCCN1CC2=CC(=O)C(=CO2)OCCCCCSC3=C4C=CC(=CC4=NC=C3)C(F)(F)F [EHT 1864] + CC(=O)Nc1cccc(-n2c(=O)n(C3CC3)c(=O)c3c(Nc4ccc(I)cc4F)n(C)c(=O)c(C)c32)c1 [Trametinib] (partner 0.02 µM)
Outline: as §1

Row | Cell Line | relative viability (EHT 1864 + Pictilisib; first compound 0.04 µM) | relative viability (EHT 1864 + Pictilisib; first compound 0.1265 µM) | relative viability (EHT 1864 + Pictilisib; first compound 0.4 µM) | relative viability (EHT 1864 + Pictilisib; first compound 1.265 µM) | relative viability (EHT 1864 + Pictilisib; first compound 4 µM) | relative viability (EHT 1864 + Olaparib; first compound 0.04 µM) | relative viability (EHT 1864 + Olaparib; first compound 0.1265 µM) | relative viability (EHT 1864 + Olaparib; first compound 0.4 µM) | relative viability (EHT 1864 + Olaparib; first compound 1.265 µM) | relative viability (EHT 1864 + Olaparib; first compound 4 µM) | relative viability (EHT 1864 + Bortezomib; first compound 0.04 µM) | relative viability (EHT 1864 + Bortezomib; first compound 0.1265 µM) | relative viability (EHT 1864 + Bortezomib; first compound 0.4 µM) | relative viability (EHT 1864 + Bortezomib; first compound 1.265 µM) | relative viability (EHT 1864 + Bortezomib; first compound 4 µM) | relative viability (EHT 1864 + Trametinib; first compound 0.04 µM) | relative viability (EHT 1864 + Trametinib; first compound 0.1265 µM) | relative viability (EHT 1864 + Trametinib; first compound 0.4 µM) | relative viability (EHT 1864 + Trametinib; first compound 1.265 µM) | relative viability (EHT 1864 + Trametinib; first compound 4 µM)
1 | HCC-44 | 0.412 | 0.37 | 0.604 | 0.573 | 0.694 | 1.04 | 0.896 | 1.01 | 0.92 | 1.02 | 0.968 | 0.757 | 0.812 | 0.851 | 0.876 | 1.08 | 0.977 | 0.961 | 0.967 | 1.11
2 | HCC-78 | 0.262 | 0.209 | 0.242 | 0.205 | 0.25 | 0.781 | 0.887 | 0.773 | 0.868 | 0.92 | 0.409 | 0.534 | 0.432 | 0.456 | 1.1 | 0.633 | 0.66 | 0.842 | 0.645 | 0.777
3 | HCC-366 | 0.137 | 0.146 | 0.128 | 0.149 | 0.138 | 0.391 | 0.325 | 0.34 | 0.347 | 0.304 | 1.03 |  | 0.928 | 1.03 | 1.11 | 0.38 | 0.3 | 0.318 | 0.413 | 0.285
4 | HCC-827 | 1.15 | 1.11 | 1 | 0.875 | 1.12 | 0.79 | 0.641 | 0.625 | 0.652 | 0.633 | 1.1 | 0.844 | 0.999 | 1.11 | 0.985 | 0.618 | 0.611 | 0.597 | 0.555 | 0.548
5 | HOP-62 | 0.788 |  | 0.612 | 0.804 | 1.09 | 0.448 |  | 0.435 | 0.438 | 0.453 | 1.18 |  | 0.618 | 1.08 | 0.986 | 0.4 |  | 0.362 | 0.38 | 0.415
6 | IA-LM | 0.421 |  | 0.38 | 0.387 | 0.384 | 0.926 | 0.842 | 0.81 | 0.62 | 0.618 | 0.821 | 0.553 | 0.956 | 0.709 | 0.536 |  |  |  |  | 
7 | LC-2-ad | 0.335 |  | 0.491 | 0.503 | 0.508 | 0.602 | 0.671 | 0.657 | 0.671 | 0.625 | 0.924 |  | 0.993 | 1.04 | 0.903 | 0.91 | 0.816 | 0.895 | 0.868 | 0.79
8 | LCLC-97TM1 | 0.222 |  | 0.161 | 0.224 | 0.227 | 0.347 | 0.346 | 0.328 | 0.326 | 0.444 | 0.754 | 0.53 | 0.75 | 0.401 | 0.7 | 0.2 | 0.178 | 0.193 | 0.183 | 0.236
9 | LK-2 | 0.614 | 0.487 | 0.591 | 0.479 | 0.661 | 0.518 | 0.608 | 0.608 | 0.551 | 0.68 |  |  |  |  |  | 0.673 | 0.48 | 0.719 | 0.596 | 1.02
